Experimental data as given in patent publication US11344025B2, “Organ preconditioning formulation with mitochondrial elongating agents” (MUSC FOUNDATION FOR RESEARCH DEVELOPMENT, priority 2017, dated 2022).
Entries after “also recorded” stand apart in the source; their conditions may differ. Where two headings read alike, the source gives them in different places.

Key:
[1] = system: focal cardiac ischemia; details: non-transplant setting, previous studies, cited from earlier work
[2] = Systemic administration of Mdivi-1, adverse effects; assay type: in vivo
Description: The studies proposed will delineate the role of mito morphology alterations in cardiac-Tx. They will also determine how donor BD impacts IM, and identify an optimum drug delivery strategy for reducing acute post-Tx injury through mito shape manipulation. The opposing roles of mito fission and fusion regulate mito morphology and function. A number of key proteins have been identified which control this process (DRP-1, mito fission protein-1 (Fis-1) and mito fission factor (mff), Mfn1/2, and OPA-1). Given the importance of these proteins for the maintenance of cellular respiration, genetic deletion is most often fatal. However, C57Bl/6 homozygous mito fission factor (Mff)-deficient (Mff^gt−/−) mice are available, as are pharmacological promoters of fusion, M1 and Mdivi-1. […] Using these tools, the inventors will dissect the role of fission and fusion in IRI and rejection in the context of organ Tx. The inventors propose three sub Aims. In SA 2.1, the inventors will determine the impact of mito fission inhibition, and thus fusion promotion, through comparing the effects of IRI and AR of recipients receiving hearts from C57Bl/6 wildtype (wt) or C57Bl/6 homozygous mito fission factor (Mff)-deficient (Mff^gt−/−) donors. In SA 2.2 the inventors will explore the therapeutic potential of donor heart pre-treatment with M1, Mdivi-1, and a combination of both. […]

[3] = system: sensitized allogeneic CD8+ T-cells cocultured with MCECs; assay: EC/T cell co-culture: cytokine release by alloreactive CD8 T cells; assay type: cell-based, mouse; details: cold stored (CIT) and treated ECs
Description: EC/T cell co-culture: Using the genetically modified and pharmacological inhibitors the inventors will dissect the impact of EC mito morphology manipulation on T cell activation/co-stimulation. These studies will focus on MCECs given the availability of reagents and ability to generate alloreactive CD8 T cells as previously published.
Allogenic CD8 T cells will be generated. In brief, C57Bl/6 mice will be inoculated with MCECs i.p. and 3 weeks later spleens will be harvested and CD8 T cells isolated using bead isolation techniques. These MCEC alloreactive CD8 T cells will then be co-cultured with MCECs in the normoxic and CIT models.

[4] = system: MCECs; assay: mitoSOX staining of mito ROS after CIT; assay type: cell-based, mouse; details: CIT-induced ROS
Description: Hypoxic cold storage and reperfusion injury culture model: A modified cell culture model that simulates the IR process of organ Tx will be used. […] Cells will then be sealed in a hypoxic chamber filled with nitrogen at 4° C. After CIT, cells will undergo simulated reperfusion by removing the preservation solution and reintroducing fresh DMEM containing 10% FBS.

Row | SMILES | cardioprotection from focal IRI [1] | cardioprotection from focal IRI ([1]; listed as Mdivi1) | adverse side effects [2] | Granzyme B (GrB) production by co-cultured alloreactive CD8 T cells [3] | IFN-gamma production by co-cultured alloreactive CD8 T cells [3] | mito ROS (mitoSox) [4]
1 | COc1cc(-n2c(S)nc3ccccc3c2=O)c(Cl)cc1Cl [Mdivi-1] | provides protection from IRI; also recorded: promote cardioprotective effects | protect both myocardium and microvasculature | no detectable adverse side effects |  |  | 
2 | CC(=O)N[C@@H](CS)C(=O)O [NAC, N-Acetyl Cysteine] |  |  |  | has no impact; also recorded: no significant effect; also recorded: do not decrease Granzyme-B to the extent of DRP-KD | has no impact; also recorded: no significant effect | completely abrogated ROS
